Reference: PMC11740379, “Novel Enyne-Modified 1,4-Thiazepines as Epidermal Growth Factor Receptor Inhibitors: Anticancer and Computational Studies” (ACS Omega, 2024)
Where two headings read alike, the source gives them in different places.

Legend:
Assay type in all cases: cell-based, human
A549 cells [1] = assay: XTT cytotoxicity assay, lung cancer cells; details: for IC50: read-out: IC50, lung cancer (A549); for Selectivity index (SI), lung cancer (A549): versus normal cells HEK-293
Experimental: (§1) The cells were cultured in RPMI medium (Sigma) supplemented with 10% heat-inactivated fetal bovine serum, 1% penicillin, and 1% L-glutamine, and incubated in a humidified CO2 atmosphere at 37 °C.
(§2) To evaluate the cytotoxic effects of TZEPs, which were dissolved in dimethyl sulfoxide (DMSO), the XTT assay (2,3-bis(2-methoxy-4-nitro-5-sulfophenyl)-2H-tetrazolium-5-carboxanilide) was employed. […] Following the incubation, 100 μL of XTT was added to each well, and the plates were incubated for an additional 4 h at 37 °C. The resulting color change was measured by recording the absorbance at 570 nm using a microplate reader (Tecan).
(§3) Conversely, an SI less than 1 means the drug is more toxic to normal cells than to target cells, which is undesirable in therapeutic contexts.

MCF-7 cells [2] = assay: XTT cytotoxicity assay, breast cancer cells; details: for IC50: read-out: IC50, breast cancer (MCF-7); for Selectivity index (SI), breast cancer (MCF-7): versus normal cells HEK-293
Experimental: as §1, §2, §3

HEK-293 cells = assay: XTT cytotoxicity assay, non-tumorigenic cells; details: XTT assay, exposure time of the IC50 not stated (24, 48, 72 h tested)
Experimental: Human cell lines for breast cancer (MCF-7), lung cancer (A549), prostate cancer (PC-3), and nontumorigenic HEK-293 were sourced from the Health Protection Agency (U.K.) and the Interlab Cell Line Collection (Italy). The cells were cultured in RPMI medium (Sigma) supplemented with 10% heat-inactivated fetal bovine serum, 1% penicillin, and 1% L-glutamine, and incubated in a humidified CO2 atmosphere at 37 °C.
To evaluate the cytotoxic effects of TZEPs, which were dissolved in dimethyl sulfoxide (DMSO), the XTT assay (2,3-bis(2-methoxy-4-nitro-5-sulfophenyl)-2H-tetrazolium-5-carboxanilide) was employed. Cells were plated in 96-well plates at a density of 10^4 cells per well and exposed to varying concentrations of TZEPs (ranging from 1 to 250 μM) for 24, 48, and 72 h. Following the incubation, 100 μL of XTT was added to each well, and the plates were incubated for an additional 4 h at 37 °C. The resulting color change was measured by recording the absorbance at 570 nm using a microplate reader (Tecan).
The IC50 values, which indicate the concentration of the compound required to inhibit 50% of cancer cell proliferation, were determined using Biosoft CalcuSyn 2.1 software. […] Conversely, an SI less than 1 means the drug is more toxic to normal cells than to target cells, which is undesirable in therapeutic contexts. In the literature, a selectivity index of 2 or higher is generally considered significant, implying that the compound selectively targets diseased cells with relatively low toxicity to healthy cells.[15]

PC-3 cells [3] = assay: XTT cytotoxicity assay, prostate cancer cells; details: for IC50: read-out: IC50, prostate cancer (PC-3); for Selectivity index (SI), prostate cancer (PC-3): versus normal cells HEK-293
Experimental: as §1, §2, §3

MCF-7 cells [4] = assay: Annexin V-FITC/PI apoptosis detection by flow cytometry; details: MCF-7, IC50 concentration, 72 h
Excerpt: (§4) Annexin V, a protein with a high affinity for phosphatidylserine (PS), is pivotal in detecting apoptosis. Normally, PS is located in the inner leaflet of the plasma membrane, but during apoptosis, it moves to the outer leaflet, making it a key marker for apoptotic cells.[16] Annexin V binds specifically to PS on the surface of these cells. A secondary dye like propidium iodide (PI) is used to distinguish apoptotic cells from viable ones with intact membranes. We can identify and quantify viable cells (annexin V–, PI–) and apoptotic cells (annexin V+, PI+) by analyzing fluorescence patterns. Here, we employed the FITC Annexin V Apoptosis Detection Kit I from BD Pharmingen. Cells were seeded at a density of 10^6 cells per well in a 6-well plate and exposed to IC50 concentration of TZEP7 for 72 h. Following treatment, cells were rinsed with cold PBS, resuspended in 1 mL of 1× Binding Buffer, and stained with 5 μL of Annexin V FITC and 5 μL of PI. After vortexing, the samples were incubated at room temperature (25 °C) for 15 min in the dark. Postincubation, 400 μL of 1× Binding Buffer was added to each sample, and apoptosis was measured using a BD Accuri C6 Flow Cytometer. Cisplatin was used as an apoptosis-inducing reference drug.

A549 cells [5] = assay: as above; details: A549, IC50 concentration, 72 h
Excerpt: as §4

PC-3 cells [6] = assay: as above; details: PC-3, IC50 concentration, 72 h
Excerpt: as §4

[7] = Homo sapiens, A549, XTT assay, exposure time of the IC50 not stated (24, 48, 72 h tested)
[8] = Homo sapiens, MCF7, XTT assay, exposure time of the IC50 not stated (24, 48, 72 h tested)
[9] = Homo sapiens, PC-3, XTT assay, exposure time of the IC50 not stated (24, 48, 72 h tested)
[10] = XTT assay, exposure time of the IC50 not stated (24, 48, 72 h tested)

SMILES | IC50 (A549 cells [1]; [7]) | Selectivity index (SI), lung cancer (A549) (A549 cells [1]) | IC50 (MCF-7 cells [2]; [8]) | Selectivity index (SI), breast cancer (MCF-7) (MCF-7 cells [2]) | IC50 (HEK-293 cells; Homo sapiens, HEK293) | IC50 (PC-3 cells [3]; [9]) | Selectivity index (SI), prostate cancer (PC-3) (PC-3 cells [3]) | IC50 (A549 cells [1]; Homo sapiens, A549, 72 h) | IC50 (MCF-7 cells [2]; Homo sapiens, MCF7, 72 h) | IC50 (PC-3 cells [3]; Homo sapiens, PC-3, 72 h) | IC50 (A549 cells [1]; [10]) | cells in early apoptosis (MCF-7 cells [4]) | cells in late apoptosis (MCF-7 cells [4]) | cells in early apoptosis (A549 cells [5]) | cells in late apoptosis (A549 cells [5]) | cells in early apoptosis (PC-3 cells [6]) | cells in late apoptosis (PC-3 cells [6]) | IC50 (MCF-7 cells [2]; [10]) | IC50 (HEK-293 cells) | IC50 (PC-3 cells [3]; [10])
Brc1ccc(C2=NC/C(=C/C#Cc3ccccc3)SC(c3ccccc3)=C2)cc1 [TZEP3] | 60.3 ± 0.8 µM | 0.58 | 13.3 ± 1 µM | 2.66 | 35.5 ± 1.3 µM | 71.2 ± 0.9 µM | 0.49 | – | – | – | – | – | – | – | – | – | – | – | – | –
C#Cc1cccc(Nc2ncnc3cc(OCCOC)c(OCCOC)cc23)c1 [erlotinib, Erlotinib, reference compound] | – | – | – | – | 12.9 ± 3 µM | – | – | 18.4 ± 0.4 µM | 13.4 ± 2 µM | 15.5 ± 30.8 µM | – | – | – | – | – | – | – | – | – | –
C(#Cc1ccccc1)/C=C1/CN=C(c2ccccc2)C=C(c2ccccc2)S1 [TZEP1] | 38.7 ± 3.2 µM | 0.76 | 69.4 ± 1.2 µM | 0.42 | 29.5 ± 0.8 µM | 12.4 ± 3.2 µM | 2.37 | – | – | – | – | – | – | – | – | – | – | – | – | –
Fc1cccc(C2=NC/C(=C/C#Cc3ccccc3)SC(c3ccccc3)=C2)c1 [TZEP2] | 61.4 ± 1.6 µM | 0.74 | 66.4 ± 1.8 µM | 0.68 | 45.7 ± 2.7 µM | 57.7 ± 1.4 µM | 0.79 | – | – | – | – | – | – | – | – | – | – | – | – | –
Clc1ccc(C2=CC(c3ccccc3)=NC/C(=C/C#Cc3ccccc3)S2)cc1 [TZEP4] | 71.1 ± 2.6 µM | 0.66 | 81.2 ± 4.4 µM | 0.58 | 47.3 ± 0.7 µM | 73.5 ± 2.2 µM | 0.64 | – | – | – | – | – | – | – | – | – | – | – | – | –
Brc1ccccc1C1=CC(c2ccccc2)=NC/C(=C/C#Cc2ccccc2)S1 [TZEP5] | 45.8 ± 0.9 µM | 0.44 | 22.3 ± 1.8 µM | 0.91 | 20.4 ± 1.4 µM | 54.9 ± 3.2 µM | 0.37 | – | – | – | – | – | – | – | – | – | – | – | – | –
Clc1ccc(C2=NC/C(=C/C#Cc3ccccc3)SC(c3ccccc3Br)=C2)cc1 [TZEP6] | 14.2 ± 2.2 µM | 0.76 | 15.5 ± 2.8 µM | 0.70 | 10.9 ± 3.4 µM | 12.4 ± 3.6 µM | 0.87 | – | – | – | – | – | – | – | – | – | – | – | – | –
CC(C)(C)c1ccc(C2=NC/C(=C/C#Cc3ccccc3)SC(c3ccccc3)=C2)cc1 [TZEP10] | 64.4 ± 1.8 µM | 1.38 | 76.3 ± 0.8 µM | 1.16 | 89 ± 0.5 µM | 73.7 ± 3.2 µM | 1.20 | – | – | – | – | – | – | – | – | – | – | – | – | –
N.N.[Cl][Pt][Cl] [cisplatin, Cisplatin, reference compound] | – | 1.11 | – | 1.02 | – | – | 1.17 | – | – | – | 13.4 ± 1.4 µM | 18.7% | 72.2% | 13.4% | 70.8% | 16.2% | 75.4% | 14.7 ± 0.6 µM | 15 ± 0.7 µM | 12.8 ± 2.8 µM
Cc1ccc(C#C/C=C2/CN=C(c3ccccc3)C=C(c3ccccc3)S2)cc1 [TZEP12] | 90.5 ± 0.7 µM | 1.21 | 92.6 ± 1 µM | 1.19 | 110 ± 1.2 µM | 101 ± 3 µM | 1.09 | – | – | – | – | – | – | – | – | – | – | – | – | –
Cc1ccc(C2=NC/C(=C/C#Cc3ccccc3)SC(c3ccccc3)=C2)cc1 [TZEP9] | 96.6 ± 1.4 µM | 1.02 | 78.4 ± 1.8 µM | 1.26 | 98.8 ± 0.7 µM | 103 ± 2 µM | 0.96 | – | – | – | – | – | – | – | – | – | – | – | – | –
COc1ccc(C2=NC/C(=C/C#Cc3ccccc3)SC(c3ccccc3)=C2)cc1 [TZEP11] | 108 ± 2.6 µM | 1.04 | 98.2 ± 2.8 µM | 1.14 | 112 ± 3 µM | 81.6 ± 3.4 µM | 1.37 | – | – | – | – | – | – | – | – | – | – | – | – | –
C(#Cc1ccccc1)/C=C1/CN=C(c2ccsc2)C=C(c2ccccc2)S1 [TZEP8] | 112.8 ± 0.8 µM | 0.87 | 85.7 ± 2.4 µM | 1.15 | 99.2 ± 3 µM | 95.4 ± 1.2 µM | 1.03 | – | – | – | – | – | – | – | – | – | – | – | – | –
